One test concerns STAT-3. In words: Rac1-bound STAT-3 (PAK pull-down, immunoblot). It is filed as cell-based, human. The settings on record: primary T cells, 3 days. As for the experimental part:
FIG. 7. […] Purified CD4^+ T lymphocytes were stimulated with IL-2 and antibodies to CD3 or IL-2 plus antibodies to CD3 and CD28 for 3 days. […] GTP-bound Ras (Ras-GTP) was analyzed using Raf RGD to determine Ras activation. […] Similarly, Ras was obtained using Raf RGD agarose followed by analysis of [^3H]GTP-bound Ras by scintillation counting.
(§1) Cell lysates were incubated with 10 μg/ml PAK-1 agarose (Rac assays) or 10 μg/mg Raf RBD agarose (Ras assay) for 60 minutes (Rac assays) or 30 minutes (Ras assays) at 4° C. Agarose beads were collected by centrifugation followed by denaturation, boiling of the samples, and SDS-PAGE analysis.

Test [1] concerns peripheral blood CD4+ T cells. In words: Apoptotic blood T cells from IBD patients receiving azathioprine/6-MP. It is filed as in vivo, human. Conditions: for number of apoptotic blood T cells: treated IBD patients vs untreated patients before therapy, cells stimulated with CD28 in culture, P<0.05. The text has this:
FIG. 3. […] (a) LPMCs were isolated and stimulated with anti-CD2/CD28 plus IL-2 in the presence or absence of 6-MP for 5 days followed by FACS analysis. […] Data represent mean values±SEM from eight patients with IBD per group. […] Data are representative of 5-13 patients per group. Magnification, ×20 (bar=100 μm) (ce) and ×40 (bar=50 μm) (f-h). (i) Quantification of the percentage of apoptotic, TUNEL-positive LPMCs in patients with IBD receiving 6-MP as compared with untreated control patients. […] Data are mean values±SEM of 5-13 patients per group.
Isolation of primary CD4^+ T lymphocytes and lamina propria cells: Human peripheral blood mononuclear cells (PBMCs) from healthy volunteers (25-42 years of age) and patients with Crohn's disease (31-65 years of age) were isolated using Ficoll-Hypaque gradients. PBMCs were further purified using CD4 monoclonal antibodies attached to immunomagnetic beads according to the manufacturer's protocol, followed by treatment with Detachabead (Dynal; Oslo, Norway). In some cases, CD4^+ T cells were further separated by negative selection techniques using CD45RO or CD45RA monoclonal antibodies (PharMingen; Heidelberg, Germany) and immunomagnetic beads (Dynal). […] Lamina propria mononuclear cells (LPMCs) from patients with IBD were isolated from gut specimens using a short-term (5-minute) digestion protocol with collagenase V, hyaluronidase (Sigma-Aldrich; St. Louis, Mo., USA), and DNase (Roche; Mannheim, Germany), as recently described in detail in Holtmann et al., Eur. J. Immunol. 32:3142-3151 (2002). […]
For FACS analysis, apoptotic cells were detected by staining with annexin V and propidium iodide using the Annexin V FITC Apoptosis Detection Kit I (PharMingen) (Atreya et al., Nat. Med. 6:583-588 (2000)). […]

For the next test, the system named is CD4+ T cells. In words: Apoptosis by Nicoletti staining and transmission electron microscopy. Format: cell-based, human. The settings on record: 5 days. As to the method:
(§2) For FACS analysis, apoptotic cells were detected by staining with annexin V and propidium iodide using the Annexin V FITC Apoptosis Detection Kit I (PharMingen) (Atreya et al., Nat. Med. 6:583-588 (2000)). In brief, T cells were washed twice in PBS, and the pellet was resuspended in annexin V binding buffer (PharMingen) at a concentration of 10^6 cells per milliliter. Annexin V FITC and propidium iodide were added (5 ill of each per 10^5 cells). Samples were gently mixed and incubated for 15 minutes at room temperature in the dark before FACS analysis. To verify the results obtained with the annexin V/propidium iodide staining, analysis of T cells displaying DNA fragmentation was also determined by the Nicoletti technique, as described in (Nicoletti et al., J. Immunol. Methods 139:271-279 (1991)). 10^6 T cells were fixed in 70% ethanol, washed once in HBSS, resuspended in 1 ml of HBSS and 1 ml of phosphate citric acid buffer (0.2 mol/l Na2PO4 and 0.004 mol/l citric acid [pH 7.8]), and incubated at room temperature for 5 minutes. After centrifugation, cells were resuspended in 1 ml of HBSS containing 20 μg/ml propidium iodide and 10 U DNase-free RNase A and incubated at room temperature for 30 minutes. Finally, cells were analyzed on a FACScan flow cytometer. Because of the fragmentation of DNA, apoptotic cells appear as hypodiploid in the DNA histogram.

In another test the test system is Ras. In words: Ras activation assay (GTP-bound Ras, Raf RBD pull-down). It is filed as cell-based, human. The settings on record: primary T cells. As for the experimental part:
as §1

The subject of the next test is Rac1. In words: Rac1 activation assay (GTP-bound Rac1, PAK pull-down). Format: cell-based, human. The settings on record: primary T cells, 3 days. As for the experimental part: as §1
In test [2] the test system is primary CD4+ T lymphocytes. The test is described as follows: Annexin V/propidium iodide FACS apoptosis of stimulated primary blood CD4+ T lymphocytes. The settings on record: for apoptosis induction during the first 2 days after administration: kinetic studies; for apoptosis of primary blood CD4+ T lymphocytes: day 5. Format: cell-based, human.
Description: Isolation of primary CD4^+ T lymphocytes and lamina propria cells: Human peripheral blood mononuclear cells (PBMCs) from healthy volunteers (25-42 years of age) and patients with Crohn's disease (31-65 years of age) were isolated using Ficoll-Hypaque gradients. PBMCs were further purified using CD4 monoclonal antibodies attached to immunomagnetic beads according to the manufacturer's protocol, followed by treatment with Detachabead (Dynal; Oslo, Norway). In some cases, CD4^+ T cells were further separated by negative selection techniques using CD45RO or CD45RA monoclonal antibodies (PharMingen; Heidelberg, Germany) and immunomagnetic beads (Dynal). […] Lamina propria mononuclear cells (LPMCs) from patients with IBD were isolated from gut specimens using a short-term (5-minute) digestion protocol with collagenase V, hyaluronidase (Sigma-Aldrich; St. Louis, Mo., USA), and DNase (Roche; Mannheim, Germany), as recently described in detail in Holtmann et al., Eur. J. Immunol. 32:3142-3151 (2002). Briefly, specimens were washed in calcium- and magnesium-free HBSS (HBSS-CMF), cut into 0.5-cm pieces, and incubated twice in HBSS containing EDTA (0.37 mg/ml) and DTT (0.145 mg/ml) at 37° C. for 15 minutes, followed by subsequent digestion for 5 minutes with collagenase V 400 (1 mg/ml), deoxyribonuclease (0.1 mg/ml DNase), and hyaloronidase (0.1 mg/ml) in a shaking incubator at 37° C. The digested tissue was washed twice in RPMI medium containing 10% FCS and centrifuged. The tissue was finally mechanically homogenized (DAKO homogenizer; Hamburg, Germany) for 4 minutes, and cells were filtered through a sterile 40-μm cell strainer (Falcon; San Diego, Calif., USA).
Such CD28 costimulation is known to prevent apoptosis of primary T cells during T cell receptor (TCR) stimulation through activation of bcl-x, and NF-κB (Noel et al., J. Immunol. 157:636-647 (1996); Radvanyi et al., J. Immunol. 156:1788-1798 (1996); Khoshnan et al., J. Immunol. 165:1743-1754 (2000)). […] In addition, recombinant IL-2 (R&D Systems; Wiesbaden, Germany) was used at a final concentration of 40 U/ml in all experiments. Lamina propria T lymphocytes were stimulated with antibodies to CD2 (4 μg/ml; Immunotech; Marseille, France) and CD28 (1 μg/ml). […] To block CD95L-mediated (FasL-mediated) apoptosis, the NOK-1 antibody (4 μg/ml, PharMingen) was used whose Fab fragments bind to human CD95L (FasL) (Jodo et al., J. Immunol. 165:5487-5494 (2000)). Recombinant human FasL (Alexis Biochemicals; Heidelberg, Germany) was used as a positive control for the NOK-1 antibody (10 μg/ml).
as §2

Setting [3] is: stimulated through the TCR/CD3 complex plus CD28.
Where [4] appears, read: stimulated with anti-CD3 antibodies alone.

For the compound `Sc1ncnc2nc[nH]c12` [6-MP, 6-mercaptopurine], the “Rac1-bound STAT-3” value in the test with STAT-3 is reported as “Downregulation”. Moreover, the “further increase in percentage of apoptotic cells on additional 6-MP in vitro” value in test [1] (T cells from 6-MP-treated patients) is recorded as “did not cause a further significant increase”. In test [1], the “number of apoptotic blood T cells” value was “significant increase”. In the test with CD4+ T cells, the “number of apoptotic CD4+ T cells” value was “marked increase”. Besides, the “activation of Ras (GTP-bound Ras)” value in the test with Ras is listed as “fail to modulate”. In the test on Rac1, the “CD28 costimulation induced Rac1 activation (GTP-bound Rac1)” value is “strongly suppressed”. The “apoptosis induction during the first 2 days after administration” value in test [2] is given as “no apoptosis induction”. Further, the figures for the “apoptosis of primary blood CD4+ T lymphocytes” value in test [2] (setting [3]) and in test [2] (setting [4]) were “induced apoptosis” and “no apoptosis”, respectively.
On to `Cn1cnc([N+](=O)[O-])c1Sc1ncnc2nc[nH]c12` [azathioprine, Azathioprine], for which the “Rac1-bound STAT-3” value in the test on STAT-3 was “reduced”. In addition, in test [1], the “number of apoptotic blood T cells” value is listed as “significant increase”. For the same compound, in the test on CD4+ T cells, the “number of apoptotic CD4+ T cells” value is “marked increase”. The “activation of Ras (GTP-bound Ras)” value with Ras is given as “virtually unaffected”. The “CD28 costimulation induced Rac1 activation (GTP-bound Rac1)” value with Rac1 is “strongly suppressed”. Also, the “concentration at which T cell apoptosis occurred” value in test [2] (FIGS. 1a and 1b) worked out at 5 µM. Also, the “apoptosis of already preactivated T lymphocytes” value in test [2] (drug added at day 5, annexin V/propidium iodide at day 10) is “induced apoptosis”. Further, in test [2], the “apoptosis induction during the first 2 days after administration” value is on record as “no apoptosis induction”. The “apoptosis of primary blood CD4+ T lymphocytes” value is recorded as “induced apoptosis” in test [2] (setting [3]) and “no apoptosis” in test [2] (setting [4]).

The values above are taken from patent publication US7524851B2 (Robert Bosch Gesellschaft fur Medizinische Forschung (RBMF), priority 2003, dated 2009).
